The source made the active and inactive calls. Peptide text beside a SMILES is read from it.
Key:
Cell membrane [1] = test: Induction of membrane damage in Salmonella typhimurium DT104 assessed as membrane stunting at 1 times of MIC incubated for 60 mins by atomic force microscopic analysis; assay type: subcellular; conditions: Salmonella enterica subsp. enterica serovar Typhimurium
Candida albicans = test: Antifungal activity against Candida albicans ATCC 10231 incubated overnight by standard microtiter dilution method; assay type: functional
RAW264.7 [2] = test: Anti-inflammatory activity in mouse RAW264.7 cells assessed as inhibition of LPS-induced IL-1beta mRNA expression at 15 ug/ml preincubated with compound for 30 mins followed by LPS stimulation and measured after 4 hrs by RT-PCR analysis; assay type: functional, cell-based; conditions: dose 15.0 µg/ml, time 4.5 hrs
Cell membrane [3] = test: Disruption of membrane integrity in Salmonella typhimurium DT104 assessed as increase in red fluorescence at 1 times of MIC incubated for 60 mins by PI and SYTO9 staining based confocal laser scanning microscopic analysis; assay type: subcellular; conditions: Salmonella enterica subsp. enterica serovar Typhimurium
Salmonella typhimurium [4] = test: Antibacterial activity against Salmonella typhimurium DT104 assessed as increase in ZO-2 mRNA level in colon at 20 mg/kg, ip administered for 3 days and measured on day 7 by RT-PCR analysis; assay type: functional, organism-based; conditions: Salmonella enterica subsp. enterica serovar Typhimurium, time 7.0 day
Salmonella typhimurium [5] = test: Antibacterial activity against Salmonella typhimurium DT104 infected in ICR mouse model at 2 mg/kg, ip administered for 3 days and measured on day 7; assay type: functional, organism-based; conditions: Salmonella enterica subsp. enterica serovar Typhimurium, time 7.0 day
Salmonella typhimurium [6] = test: Antibacterial activity against Salmonella typhimurium DT104 in the presence 25% inactivated mouse serum by MH broth based assay; assay type: functional, Salmonella enterica subsp. enterica serovar Typhimurium; conditions: Salmonella enterica
Salmonella typhimurium [7] = test: Antibacterial activity against Salmonella typhimurium DT104 in the presence of NH4Cl by MH broth based assay; assay type: functional, Salmonella enterica subsp. enterica serovar Typhimurium; conditions: Salmonella enterica
Cell membrane [8] = test: Disruption of membrane integrity in Salmonella typhimurium DT104 assessed as increase in fluorescence intensity at 0.5 to 2 times of MIC incubated for 15 mins by PI staining based flow cytometric analysis; assay type: subcellular; conditions: Salmonella enterica subsp. enterica serovar Typhimurium
[9] = Cytotoxicity against mouse RAW264.7 cells infected with Salmonella typhimurium DT104 assessed as cell viability at 1 times of MIC measured at 180 min by MTT assay; assay type: toxicity, cell-based; conditions: RAW264.7 cells infected with Salmonella typhimurium DT104, read-out: Activity
RAW264.7 [10] = test: Anti-inflammatory activity in mouse RAW264.7 cells assessed as inhibition of LPS-induced TNF-alpha mRNA expression at 15 ug/ml preincubated with compound for 30 mins followed by LPS stimulation and measured after 4 hrs by RT-PCR analysis; assay type: functional, cell-based; conditions: dose 15.0 µg/ml, time 4.5 hrs
Salmonella typhimurium [11] = test: Antibacterial activity against Salmonella typhimurium DT104 in the presence of FeCl3 by MH broth based assay; assay type: functional, Salmonella enterica subsp. enterica serovar Typhimurium; conditions: Salmonella enterica
[12] = Antibacterial activity against Salmonella enterica subsp. enterica serovar Choleraesuis ATCC 13312 incubated overnight by standard microtiter dilution method; assay type: functional
Salmonella enteritidis = test: Antibacterial activity against Salmonella enteritidis CICC 21527 incubated overnight by standard microtiter dilution method; assay type: functional, Salmonella enterica subsp. enterica serovar Enteritidis; conditions: Salmonella enterica
Salmonella typhimurium [13] = test: Antibacterial activity against Salmonella typhimurium DT104 infected in ICR mouse model assessed as alleviation of intestinal mucosal damage at 20 mg/kg, ip administered for 3 days and measured on day 7 by H&E staining based analysis; assay type: functional, organism-based; conditions: Salmonella enterica subsp. enterica serovar Typhimurium, time 7.0 day
Salmonella typhimurium [14] = test: Antibacterial activity against Salmonella typhimurium DT104 assessed as reduction in IL-15 mRNA level in ileum at 20 mg/kg, ip administered for 3 days and measured on day 7 by RT-PCR analysis; assay type: functional, organism-based; conditions: Salmonella enterica subsp. enterica serovar Typhimurium, time 7.0 day
Salmonella typhimurium [15] = test: Antibacterial activity against Salmonella typhimurium DT104 assessed as reduction in IL-8 mRNA level in ileum at 20 mg/kg, ip administered for 3 days and measured on day 7 by RT-PCR analysis; assay type: functional, organism-based; conditions: Salmonella enterica subsp. enterica serovar Typhimurium, time 7.0 day
[16] = Antibacterial activity against Salmonella dublin CICC 21497 incubated overnight by standard microtiter dilution method; assay type: functional, Salmonella enterica subsp. enterica serovar Dublin; conditions: Salmonella enterica
[17] = system: Staphylococcus epidermidis; test: Antibacterial activity against methicillin-resistant Staphylococcus epidermidis ATCC 12228 incubated overnight by standard microtiter dilution method; assay type: functional
RAW264.7 [18] = test: Inhibition of LPS-stimulated IL-8 production in mouse RAW264.7 cells at 1 to 128 ug/ml incubated for 24 hrs by ELISA analysis; assay type: functional, cell-based; conditions: dose 1-128 µg/ml
Lipid bilayer = test: Induction of outer membrane permeabilization in Salmonella typhimurium DT104 at 0.625 to 15 microg/ml by NPN uptake based fluorescence spectrophotometric analysis; conditions: Salmonella enterica subsp. enterica serovar Typhimurium, dose 0.625-15 µg/ml
Salmonella typhimurium [19] = test: Antibacterial activity against Salmonella typhimurium DT104 assessed as reduction in IL-1beta mRNA level in ileum at 20 mg/kg, ip administered for 3 days and measured on day 7 by RT-PCR analysis; assay type: functional, organism-based; conditions: Salmonella enterica subsp. enterica serovar Typhimurium, time 7.0 day
Salmonella typhimurium [20] = test: Antibacterial activity against Salmonella typhimurium DT104 infected in mouse RAW264.7 cells assessed as bacterial killing at 1 times of MIC measured after 90 mins by MH agar based serial dilution method relative to control; assay type: functional, Salmonella enterica subsp. enterica serovar Typhimurium; conditions: 1.5 h
[21] = Antibacterial activity against Salmonella enterica subsp. enterica serovar Choleraesuis CICC 21493 incubated overnight by standard microtiter dilution method; assay type: functional
Cell membrane [22] = test: Induction of cytoplasmic membrane depolarization in Salmonella typhimurium DT104 assessed as increase in fluorescence intensity at 2 times of MIC incubated for 15 mins by DiSC3-5 dye based fluorescence method; assay type: subcellular; conditions: Salmonella enterica subsp. enterica serovar Typhimurium
Salmonella typhimurium [23] = test: Antibacterial activity against Salmonella typhimurium DT104 in the presence of KCl by MH broth based assay; assay type: functional, Salmonella enterica subsp. enterica serovar Typhimurium; conditions: Salmonella enterica
Salmonella typhimurium [24] = test: Antibacterial activity against Salmonella typhimurium DT104 assessed as reduction in IL-1beta production in serum at 20 mg/kg, ip administered for 3 days and measured on day 7; assay type: functional, organism-based; conditions: Salmonella enterica subsp. enterica serovar Typhimurium, time 7.0 day
Salmonella typhimurium [25] = test: Antibacterial activity against Salmonella typhimurium DT104 infected in ICR mouse model assessed as reduction in bacterial translocation to liver at 2 mg/kg, ip administered for 3 days and measured on day 7 by serial dilution method; assay type: functional, organism-based; conditions: Salmonella enterica subsp. enterica serovar Typhimurium, time 7.0 day
Escherichia coli = test: Antibacterial activity against Escherichia coli O157:H7 CICC 21530 incubated overnight by standard microtiter dilution method; assay type: functional
Salmonella typhimurium [26] = test: Antibacterial activity against multi-drug resistant Salmonella typhimurium DT104 assessed as inhibition of bacterial growth at 0.5 to 2 times of MIC by MH agar based serial dilution method; assay type: functional, organism-based; conditions: Salmonella enterica subsp. enterica serovar Typhimurium, time <= 120.0 min, TDE = time-dependent effect
Salmonella typhimurium [27] = test: Antibacterial activity against Salmonella typhimurium DT104 infected in ICR mouse model assessed as body weight gain at 2 mg/kg, ip administered for 3 days and measured from day 4 to day 7; assay type: functional, organism-based; conditions: Salmonella enterica subsp. enterica serovar Typhimurium, time 7.0 day
Salmonella typhimurium [28] = test: Antibacterial activity against Salmonella typhimurium DT104 in the presence of NaCl by MH broth based assay; assay type: functional, Salmonella enterica subsp. enterica serovar Typhimurium; conditions: Salmonella enterica
Salmonella typhimurium [29] = test: Antibacterial activity against Salmonella typhimurium DT104 assessed as reduction in IL-8 production in serum at 20 mg/kg, ip administered for 3 days and measured on day 7; assay type: functional, organism-based; conditions: Salmonella enterica subsp. enterica serovar Typhimurium, time 7.0 day
[30] = Hemolytic activity in human Red blood cells assessed as hemolysis at 128 ug/ml incubated for 1 hrs by absorbance based microplate reader analysis relative to control; assay type: toxicity, cell-based, Erythrocyte; conditions: red blood cells (erythrocytes), at 128 µg/mL, read-out: Activity
Cell membrane [31] = test: Induction of membrane damage in Salmonella typhimurium DT104 assessed as membrane creping at 1 times of MIC incubated for 60 mins by atomic force microscopic analysis; assay type: subcellular; conditions: Salmonella enterica subsp. enterica serovar Typhimurium

C[C@@H](O)[C@H](NC(=O)[C@H](CS)NC(=O)[C@H](CCCCN)NC(=O)[C@H](Cc1c[nH]c2ccccc12)NC(=O)[C@H](CCCCN)NC(=O)[C@@H](N)Cc1c[nH]c2ccccc12)C(=O)N[C@@H](CCCCN)C(=O)N[C@@H](CO)C(=O)NCC(=O)N[C@@H](CS)C(=O)N[C@@H](CCCCN)C(=O)N[C@@H](Cc1c[nH]c2ccccc12)C(=O)N[C@@H](CCCCN)C(=O)N[C@@H](Cc1c[nH]c2ccccc12)C(N)=O (H-WKWKCTKSGCKWKW-NH2)
2 µg/mL: MIC (Candida albicans)
8 µg/mL: MIC (Salmonella typhimurium [11]) | MIC (Salmonella enteritidis) | MIC [16] | MIC [21] | MIC (Salmonella typhimurium [23])
16 µg/mL: MIC (Salmonella typhimurium [6])
< 10%: hemolysis at 1 h, 128 ug/ml [30]
1 µg/mL: MIC [12]
>99.9%: Activity (Salmonella typhimurium [20])
active: Activity (Cell membrane [1]) | inhibition (RAW264.7 [2]) | Activity (Cell membrane [3]) | Activity (Salmonella typhimurium [4]) | Activity (Salmonella typhimurium [5]) | Activity (Cell membrane [8]) | inhibition (RAW264.7 [10]) | Activity (Salmonella typhimurium [13]) | Activity (Salmonella typhimurium [14]) | Activity (Salmonella typhimurium [15]) | inhibition (RAW264.7 [18]) | Activity (Lipid bilayer) | Activity (Salmonella typhimurium [19]) | Activity (Cell membrane [22]) | Activity (Salmonella typhimurium [24]) | Activity (Salmonella typhimurium [25]) | Activity (Salmonella typhimurium [26]) Tde | Activity (Salmonella typhimurium [27]) | Activity (Salmonella typhimurium [29]) | Activity (Cell membrane [31])
> 90%: viability at 3 h, 1 times of MIC [9]
4 µg/mL: MIC (Salmonella typhimurium [7]) | MIC [17] | MIC (Escherichia coli) | MIC (Salmonella typhimurium [28])

From ChEMBL document CHEMBL5352429, “Designed symmetrical β-hairpin peptides for treating multidrug-resistant salmonella typhimurium infections” (Eur J Med Chem, 2022)
